Source: patent US10576102B2, “KOC1-derived peptide and vaccine including same” (ONCOTHERAPY SCIENCE, INC., priority 2014, dated 2020)
“Also recorded” adds a separate entry of the source.

Columns and labels:
[1] = test system: peptide-pulsed C1R-A33; assay: In vitro CTL induction, IFN-gamma ELISPOT assay (HLA-A*3303); format: cell-based, human; details: CTLs induced with peptide-pulsed DCs from HLA-A*3303-positive volunteers, day 21, vs peptide-pulsed C1R-A33, compared with unpulsed control
Procedure: C1R (C1R-A33) that stably expresses HLA-A*3303 was used as a stimulator cell. A cDNA encoding the open-reading frame of HLA-A*3303 was amplified by PCR and cloned into an expression vector. C1R cells were transfected with the expression vector, and then selected using G418 (Invitrogen) for two weeks. The G418-selected cells were seeded into wells containing G418-added culture medium in a 96-well plate, and further cultured for 30 days. The exogenous HLA-A*3303 expression in C1R cells was verified by flow cytometric analysis.
Monocyte-derived dendritic cells (DCs) were used as the antigen-presenting cell to induce a cytotoxic T lymphocyte (CTL) response against peptides presented on human leukocyte antigens (HLAs). As described in the other sections, DCs were generated in vitro (Nakahara S et al., Cancer Res 2003, 63(14): 4112-8). Specifically, peripheral-blood mononuclear cells isolated from healthy volunteers (HLA-A*3303-positive) with the Ficoll-Paque plus solution (Pharmacia) were separated by attaching to plastic tissue culture dishes (Becton Dickinson) and concentrated as a monocyte fraction. The monocyte-concentrated population was cultured in the presence of 1000 IU/ml granulocyte macrophage colony-stimulating factor (R&D System) and 1000 IU/ml interleukin(IL)-4 (R&D System) in an AIM-V medium (Invitrogen) containing 2% heat-inactivated autologous serum (AS). After seven days of culturing, the cytokine-induced DCs were pulsed with 20 micro-g/ml each of the synthesized peptides in an AIM-V medium at 37 degrees C. for three hours in the presence of 3 micro-g/ml beta 2-microglobulin. The generated cells appeared to express on their cell surface DC-associated molecules such as CD80, CD83, CD86 and HLA class II (data not shown). Next, these peptide-pulsed DCs were inactivated by X-ray irradiation (20 Gy), and mixed in a 1:20 ratio with autologous CD8^+ T cells obtained by positive selection using the CD8 Positive Isolation Kit (Dynal). These culture products were seeded in a 48-well plate (Corning). Each well was made to contain 1.5×10^4 peptide-pulsed DCs, 3×10^5 CD8^+ T cells and 10 ng/ml IL-7 (R&D System) in 0.5 ml of the AIM-V/2% AS medium. Three days later, these culture products were added with a final concentration of 20 IU/ml IL-2 (CHIRON). On day 7 and day 14, T cells were further stimulated with peptide-pulsed autologous DCs. The DCs were prepared every time by the same method as above. On day 21, after the third peptide stimulation, CTLs were examined against the peptide-pulsed C1R-A33 cell by a human interferon (IFN)-gamma enzyme-linked immunospot (ELISPOT) assay (Tanaka H et al., Br J Cancer 2001, 84(1): 94-9; Umano Y et. al., Br J Cancer 2001, 84(8): 1052-7; Uchida N et al., Clin Cancer Res 2004, 10(24): 8577-86; Suda T et al., Cancer Sci 2006, 97(5): 411-9; Watanabe T et al., Cancer Sci 2005, 96(8): 498-506).
(§1) Specifically, peptide-pulsed C1R-A33 (1×10^4 cells/well) was prepared as the stimulator cell. The induced CTLs, i.e., CTL lines and CTL clones, were used as the responder cell. The IFN-gamma ELISPOT assay and IFN-gamma ELISA were performed according to the manufacturer's manual.

[2] = test system: peptide-pulsed C1R-A33; assay: IFN-gamma ELISA of CTL lines and CTL clones (HLA-A*3303); format: cell-based, human; details: for IFN-gamma production of CTL clones, ELISA: CTL clones by limiting dilution, peptide-pulsed C1R-A33; for IFN-gamma production of CTL lines, ELISA: target cells pulsed with the peptide vs not pulsed, C1R-A33
Procedure: CTLs were propagated in culture using methods similar to those disclosed by Riddell et al. (Walter E A et al., N Engl J Med 1995, 333(16): 1038-44; Riddell S R et al., Nat Med 1996, 2(2): 216-23). The CTLs were co-cultured in a total of 25 ml AIM-V medium containing 5% AS (AIM-V/5% AS) and 40 ng/ml anti-CD3 antibody with two types of Mitomycin C-treated human B lymphoblastoid cell lines at 5×10^6 cells/flask. One day after beginning of the culturing, 120 IU/ml IL-2 was added to the culture. On days 5, 8 and 11, a fresh AIM-V/5% AS medium containing 30 IU/ml IL-2 was added to the culture (Tanaka H et al., Br J Cancer 2001, 84(1): 94-9; Umano Y et al., Br J Cancer 2001, 84(8): 1052-7; Uchida N et al., Clin Cancer Res 2004, 10(24): 8577-86; Suda T et al., Cancer Sci 2006, 97(5): 411-9; Watanabe T et al., Cancer Sci 2005, 96(8): 498-506).
Dilution of CTLs was carried out to make 0.3, 1 and 3 cells/well in 96 round-bottomed microtiter plates (Nalge Nunc International). The CTLs were co-cultured with two types of Mitomycin C-treated human B lymphoblastoid cell lines at 1×10^4 cells/well in a total of 150 micro-1/well AIM-V/5% AS medium with 30 ng/ml anti-CD3 antibody and 125 IU/ml IL-2. Ten days later, IL-2 was added to the medium at 50 micro-1/well to reach a final concentration of 125 IU/ml. On day 14, the CTL activity was tested, and the CTL clones were propagated using the same method as described above (Uchida N et al., Clin Cancer Res 2004, 10(24): 8577-86; Suda T et al., Cancer Sci 2006, 97(5): 411-9; Watanabe T et al., Cancer Sci 2005, 96(8): 498-506).
as §1

| Sequence | peptide-specific CTL activity (IFN-gamma production), ELISPOT [1] | further results |
| --- | --- | --- |
| ELTLYNPER (a peptide derived from KOC1) [SEQ ID NO: 63] | potent IFN-gamma production | – |
| FYACQVAQR (a peptide derived from KOC1) [SEQ ID NO: 61] | potent IFN-gamma production | IFN-gamma production of CTL clones, ELISA ([2]; listed as KOC1-A33-9-543): Potent IFN-gamma production; IFN-gamma production of CTL lines, ELISA [2]: potent IFN-gamma production |
| FYACQVAQRK (a peptide derived from KOC1) [SEQ ID NO: 79] | potent IFN-gamma production | – |
| LAHNNFVGR (a peptide derived from KOC1) [SEQ ID NO: 62] | potent IFN-gamma production | IFN-gamma production of CTL clones, ELISA ([2]; listed as KOC1-A33-9-282): Potent IFN-gamma production; IFN-gamma production of CTL lines, ELISA [2]: potent IFN-gamma production |
| LVKTGYAFV (a peptide derived from KOC1) [SEQ ID NO: 74] | potent IFN-gamma production | – |
| NNFVGRLIGK (a peptide derived from KOC1) [SEQ ID NO: 85] | potent IFN-gamma production | – |
| QGQHIKQLSR (a peptide derived from KOC1) [SEQ ID NO: 80] | potent IFN-gamma production | – |
| SSAEVVVPR (a peptide derived from KOC1) [SEQ ID NO: 4] | – | peptide-specific CTL activity (IFN-gamma production), ELISPOT ([1]; listed as KOC1-A33-9-517): no specific IFN-gamma production; also recorded: specific IFN-gamma production was not observed |
